Literature values as cited in patent publication US12179232B2 (priority 2020, dated 2024).

System: coronaviruses
Conditions: 0.05-0.2% benzalkonium chloride or 0.02% chlorhexidine digluconate

For `N=C(NCCCCCCNC(=N)NC(=N)Nc1ccc(Cl)cc1)NC(=N)Nc1ccc(Cl)cc1.O=C(O)[C@H](O)[C@@H](O)[C@H](O)[C@H](O)CO.O=C(O)[C@H](O)[C@@H](O)[C@H](O)[C@H](O)CO` [chlorhexidine digluconate], the “effectiveness of surface inactivation compared with ethanol, hydrogen peroxide, sodium hypochlorite” value is given as “less effective”.
In the case of benzalkonium chloride, the “effectiveness of surface inactivation compared with ethanol, hydrogen peroxide, sodium hypochlorite” value is listed as “less effective”.
